#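 Compound exposure: 48 hours, 5 concentrations, 96-well plates. GI50 = concentration required for 50% inhibition of growth.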 Calls of active or inactive are those of the source. Cut-off read from the data, not from the text of the source: active = GI50 up to about 1.1 µM and inactive = higher.
# Tests used:
# Experiment in all cases: DTP human tumour cell line panel, 48 h
# 786-0 = system: 786-0
# A498 = system: A498
# A549 = system: A549
# ACHN = system: ACHN
# BT-549 = system: BT-549
# CAKI-1 = system: CAKI-1
# COLO 205 = system: COLO 205
# DU-145 = system: DU-145
# EKVX = system: EKVX
# HCC 2998 = system: HCC 2998
# HCT-116 = system: HCT-116
# HCT-15 = system: HCT-15
# HL-60 = system: HL-60
# HOP-62 = system: HOP-62
# HOP-92 = system: HOP-92
# HT-29 = system: HT-29
# Hs-578T = system: Hs-578T
# IGROV-1 = system: IGROV-1
# K562 = system: K562
# KM12 = system: KM12
# M14 = system: M14
# MCF7 = system: MCF7
# MDA-MB-231 = system: MDA-MB-231
# MDA-MB-435 = system: MDA-MB-435
# MOLT-4 = system: MOLT-4
# Malme-3M = system: Malme-3M
# NCI-H226 = system: NCI-H226
# NCI-H23 = system: NCI-H23
# NCI-H460 = system: NCI-H460
# NCI-H522 = system: NCI-H522
# NCI/ADR-RES = system: NCI/ADR-RES
# OVCAR-3 = system: OVCAR-3
# OVCAR-4 = system: OVCAR-4
# OVCAR-5 = system: OVCAR-5
# PC-3 = system: PC-3
# RPMI-8226 = system: RPMI-8226
# RXF 393 = system: RXF 393
# SF-268 = system: SF-268
# SF-295 = system: SF-295
# SF-539 = system: SF-539
# SK-MEL-28 = system: SK-MEL-28
# SK-MEL-2 = system: SK-MEL-2
# SK-MEL-5 = system: SK-MEL-5
# SK-OV-3 = system: SK-OV-3
# SNB-19 = system: SNB-19
# SNB-75 = system: SNB-75
# SR = system: SR
# SW-620 = system: SW-620
# T47D = system: T47D
# TK-10 = system: TK-10
# U-251 = system: U-251
# UACC-62 = system: UACC-62
# UO-31 = system: UO-31
# CCRF-CEM = system: CCRF-CEM
# LOX IMVI = system: LOX IMVI
# OVCAR-8 = system: OVCAR-8
# SN12C = system: SN12C
# UACC-257 = system: UACC-257
structure (smiles),measurement,setting,value
NS(=O)(=O)c1nnc(NS(=O)(=O)c2ccccc2[N+](=O)[O-])s1,GI50,786-0,> 100 µM (inactive)
same,GI50,A498,> 100 µM (inactive)
same,GI50,A549,> 100 µM (inactive)
same,GI50,ACHN,> 100 µM (inactive)
same,GI50,BT-549,> 100 µM (inactive)
same,GI50,CAKI-1,> 100 µM (inactive)
same,GI50,COLO 205,> 100 µM (inactive)
same,GI50,DU-145,> 100 µM (inactive)
same,GI50,EKVX,> 100 µM (inactive)
same,GI50,HCC 2998,> 100 µM (inactive)
same,GI50,HCT-116,> 100 µM (inactive)
same,GI50,HCT-15,> 100 µM
same,GI50,HL-60,> 100 µM (inactive)
same,GI50,HOP-62,> 100 µM (inactive)
same,GI50,HOP-92,> 100 µM (inactive)
same,GI50,HT-29,> 100 µM (inactive)
same,GI50,Hs-578T,> 100 µM (inactive)
same,GI50,IGROV-1,> 100 µM (inactive)
same,GI50,K562,> 100 µM (inactive)
same,GI50,KM12,> 100 µM (inactive)
same,GI50,M14,> 100 µM (inactive)
same,GI50,MCF7,> 100 µM (inactive)
same,GI50,MDA-MB-231,> 100 µM (inactive)
same,GI50,MDA-MB-435,> 100 µM (inactive)
same,GI50,MOLT-4,> 100 µM (inactive)
same,GI50,Malme-3M,> 100 µM (inactive)
same,GI50,NCI-H226,> 100 µM (inactive)
same,GI50,NCI-H23,> 100 µM (inactive)
same,GI50,NCI-H460,> 100 µM (inactive)
same,GI50,NCI-H522,> 100 µM (inactive)
same,GI50,NCI/ADR-RES,> 100 µM (inactive)
same,GI50,OVCAR-3,> 100 µM (inactive)
same,GI50,OVCAR-4,> 100 µM (inactive)
same,GI50,OVCAR-5,> 100 µM (inactive)
same,GI50,PC-3,> 100 µM (inactive)
same,GI50,RPMI-8226,> 100 µM (inactive)
same,GI50,RXF 393,> 100 µM (inactive)
same,GI50,SF-268,> 100 µM (inactive)
same,GI50,SF-295,> 100 µM (inactive)
same,GI50,SF-539,> 100 µM (inactive)
same,GI50,SK-MEL-28,> 100 µM (inactive)
same,GI50,SK-MEL-2,> 100 µM (inactive)
same,GI50,SK-MEL-5,> 100 µM (inactive)
same,GI50,SK-OV-3,> 100 µM (inactive)
same,GI50,SNB-19,> 100 µM (inactive)
same,GI50,SNB-75,> 100 µM (inactive)
same,GI50,SR,> 100 µM (inactive)
same,GI50,SW-620,> 100 µM (inactive)
same,GI50,T47D,> 100 µM (inactive)
same,GI50,TK-10,> 100 µM (inactive)
same,GI50,U-251,> 100 µM (inactive)
same,GI50,UACC-62,> 100 µM (inactive)
same,GI50,UO-31,> 100 µM (inactive)
C=C(C)[C@@]1(O)O[C@H]2C[C@@]3(C)OC(=CC3=O)/C(C)=C\[C@@H]3OC(=O)[C@@]1(C)[C@H]32,GI50,786-0,11.7 µM (inactive)
same,GI50,A549,29.2 µM (inactive)
same,GI50,ACHN,18.2 µM (inactive)
same,GI50,BT-549,8.89 µM (inactive)
same,GI50,CAKI-1,19.6 µM (inactive)
same,GI50,CCRF-CEM,3.94 µM (inactive)
same,GI50,COLO 205,16 µM (inactive)
same,GI50,DU-145,37.7 µM (inactive)
same,GI50,EKVX,29.2 µM (inactive)
same,GI50,HCC 2998,15.3 µM (inactive)
same,GI50,HCT-116,7.64 µM (inactive)
same,GI50,HCT-15,9.25 µM
same,GI50,HL-60,14.2 µM (inactive)
same,GI50,HOP-62,21.6 µM (inactive)
same,GI50,HOP-92,20.4 µM (inactive)
same,GI50,HT-29,19.5 µM (inactive)
same,GI50,Hs-578T,45.8 µM (inactive)
same,GI50,IGROV-1,15 µM (inactive)
same,GI50,K562,4.67 µM (inactive)
same,GI50,KM12,15.1 µM (inactive)
same,GI50,LOX IMVI,6.31 µM (inactive)
same,GI50,M14,14.9 µM (inactive)
same,GI50,MCF7,11.6 µM (inactive)
same,GI50,MDA-MB-231,17 µM (inactive)
same,GI50,MDA-MB-435,14.7 µM (inactive)
same,GI50,MOLT-4,7.8 µM (inactive)
same,GI50,Malme-3M,18.5 µM (inactive)
same,GI50,NCI-H226,39.3 µM (inactive)
same,GI50,NCI-H23,15.3 µM (inactive)
same,GI50,NCI-H460,22.8 µM (inactive)
same,GI50,NCI-H522,3.61 µM (inactive)
same,GI50,NCI/ADR-RES,13.1 µM (inactive)
same,GI50,OVCAR-3,15.5 µM (inactive)
same,GI50,OVCAR-4,20.7 µM (inactive)
same,GI50,OVCAR-5,14 µM (inactive)
same,GI50,OVCAR-8,27 µM (inactive)
same,GI50,PC-3,16.3 µM (inactive)
same,GI50,RPMI-8226,7.94 µM (inactive)
same,GI50,RXF 393,11.1 µM (inactive)
same,GI50,SF-268,23 µM (inactive)
same,GI50,SF-295,23.7 µM (inactive)
same,GI50,SF-539,23.9 µM (inactive)
same,GI50,SK-MEL-28,12.6 µM (inactive)
same,GI50,SK-MEL-2,14 µM (inactive)
same,GI50,SK-MEL-5,13.3 µM (inactive)
same,GI50,SK-OV-3,47.4 µM (inactive)
same,GI50,SN12C,15 µM (inactive)
same,GI50,SNB-19,> 58.7 µM (inactive)
same,GI50,SNB-75,23.8 µM (inactive)
same,GI50,SR,6.97 µM (inactive)
same,GI50,SW-620,4.9 µM (inactive)
same,GI50,T47D,21.3 µM (inactive)
same,GI50,TK-10,22.9 µM (inactive)
same,GI50,U-251,16.1 µM (inactive)
same,GI50,UACC-257,23.2 µM (inactive)
same,GI50,UACC-62,14.1 µM (inactive)
same,GI50,UO-31,30.1 µM (inactive)

# From ChEMBL document CHEMBL1201862, “PubChem BioAssay data set” (2004)
